Patent publication US11026426B2, “Oxadiazole and phenol derivatives as antibacterial and/or herbicidal agents” (NORTHERN ILLINOIS RESEARCH FOUNDATION, priority 2017, dated 2021)
Like-named read-outs stand apart in the source and are kept apart here.

What was measured:
[1] = tested on: Escherichia coli; assay: Antibacterial preliminary screening EC; format: cell-based; conditions: score 0-3; further: key: 0 represents no inhibition; 3 is comparable to commercial antibiotic control
[2] = tested on: Pseudomonas aeruginosa; assay: Antibacterial preliminary screening PA; format: cell-based; conditions: score 0-3; further: key: 0 represents no inhibition; 3 is comparable to commercial antibiotic control
[3] = tested on: Corynebacterium xerosis; assay: Antibacterial preliminary screening CX; format: cell-based; conditions: score 0-3; further: key: 0 represents no inhibition; 3 is comparable to commercial antibiotic control
[4] = tested on: Micrococcus luteus; assay: Antibacterial preliminary screening ML; format: cell-based; conditions: score 0-3; further: key: 0 represents no inhibition; 3 is comparable to commercial antibiotic control
[5] = tested on: Corynebacterium pseudodiphtheriae; assay: Antibacterial preliminary screening CP; format: cell-based; conditions: score 0-3;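 further: 0 is no inhibition and 3 matches the commercial antibiotic control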
[6] = molecular target: AtIspD (Arabidopsis thaliana, UniProt P69834); assay: University of Hamburg photometric enzymatic inhibition assay AtIspD; format: biochemical
Procedure: (§1) Compounds were subjected to a photometric enzymatic assay to test for inhibition of the plant enzymes Arabidopsis thaliana IspD and IspF, and IspE from Lycopersicon esculentum.
The procedure for AtIspD enzymatic inhibition assay, was performed by making an assay mixture of 100 mM Tris hydrochloride at pH 8.0 with 10 mM MgCl2, 1 mM dithiothreitol, 2.5 mM potassium phosphoenol pyruvate, 2.1 mM CTP, 2 mM ATP, 1 mM of (2R,3S)-2,3-dihydroxy-4-oxopentyl phosphate, 460 μM NADH, 1.1% (v/v) DMSO, 0.4 U IspE, 1 U lactate dehydrogenase, 1 U pyruvate kinase and 2.4 mU IspD in 180 μL of solution. Solutions were incubated at 27° C. and monitored photometrically. By preparing the assay mixture with a large excess of IspE compared to IspD, any inhibition of IspE by the test inhibitor would be insignificant compared to IspD and therefore the rate of the reaction is determined by IspD activity.

[7] = tested on: Klebsiella pneumonia; assay: Antibacterial preliminary screening KP; format: cell-based; conditions: score 0-3
[8] = tested on: Mycobacterium smegmatis; assay: Antibacterial preliminary screening MS; format: cell-based; conditions: score 0-3
[9] = molecular target: LeIspE (Solanum lycopersicum, UniProt P93841); assay: University of Hamburg photometric enzymatic inhibition assay LeIspE; format: biochemical, Lycopersicon esculentum
Procedure: as §1
The IspE assay conditions were very similar to the IspD assay in which the assay mixture was composed of 100 mM Tris hydrochloride at pH 8.0 with 10 mM MgCl2, 1 mM dithiothreitol, 2.5 mM potassium phosphoenol pyruvate, 2 mM ATP, 1 mM of 4-Diphosphocytidyl-2-C-methylerythritol, 460 μM NADH, 1.1% (v/v) DMSO, 2.4 mU IspE, 1 U lactate dehydrogenase, 1 U pyruvate kinase in 180 μL of solution. Solutions were incubated at 27° C. and monitored photometrically.

[10] = tested on: Bacillus cereus; assay: Antibacterial preliminary screening BC; format: cell-based; conditions: score 0-3
[11] = molecular target: AtIspF (Arabidopsis thaliana, UniProt Q9CAK8); assay: University of Hamburg photometric enzymatic inhibition assay AtIspF; format: biochemical
Procedure: as §1
The IspF assay mixture conditions were as follows: 100 mM Tris hydrochloride at pH 8.0 with 10 mM MgCl2, 1 mM dithiothreitol, 2.5 mM potassium phosphoenol pyruvate, 2 mM ATP, 1 mM of 4-diphosphocytidyl-2C methylerythritol 2-phosphate, 460 μM NADH, 1.1% (v/v) DMSO, 0.5 U CMP kinase, 2.4 mU IspF, 1 U lactate dehydrogenase, 1 U pyruvate kinase in 180 μL of solution. Solutions were incubated at 27° C. and monitored photometrically.

[12] = tested on: Burkholderia thailandensis; format: cell-based; conditions: preliminary screening, score 0-3
[13] = molecular target: Lycopersicon esculentum IspE (LeIspE) (Solanum lycopersicum, UniProt P93841); assay: Thermal shift assay against LeIspE; format: binding
[14] = molecular target: T1, Mycobacterium tuberculosis IspD (MtIspD) (Mycobacterium tuberculosis, UniProt P9WKG9); assay: Thermal shift assay against MtIspD; format: binding
T1 sequence (P9WKG9 1-231): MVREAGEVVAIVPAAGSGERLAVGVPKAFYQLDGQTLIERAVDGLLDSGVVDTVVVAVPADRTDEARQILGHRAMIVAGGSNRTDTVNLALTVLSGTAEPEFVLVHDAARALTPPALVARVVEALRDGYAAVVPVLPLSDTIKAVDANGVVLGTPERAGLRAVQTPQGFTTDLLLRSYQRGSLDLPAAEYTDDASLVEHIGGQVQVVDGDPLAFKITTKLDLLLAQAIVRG

[15] = tested on: lettuce seeds; assay: Lettuce leaf assay; format: in vivo; parameters: key: 0 (no effect); 5(complete inhibition or bleaching); conditions: ranking 0-5
Text: The lettuce leaf assay is a qualitative assay used to determine the relative effectiveness of the test compounds at inhibition of germination of seeds and root development as well as causing bleaching of leaves. Isoprenoid synthesis is vital in plants as isoprene-product gibberellins are a class of growth hormones in plants responsible for stimulating cell elongation and division. In addition, some carotenoids are involved in photosynthesis as components of the electron transport chain. MEP pathway inhibitors have the potential to prevent synthesis of these necessary cellular components and growth hormones resulting in inhibition of germination and root development as well as causing chlorosis, or bleaching in the leaves. The lettuce leaf assay, explores the effects of compounds as potential MEP pathway inhibitors by evaluating the effect on bleaching, root development, and germination of lettuce seeds, which all rely on isoprenoid biosynthesis. […] The assay is a qualitative assay and the effects are given rankings from 0 (no effect) to 5 (complete inhibition or bleaching). In this assay, compounds are dissolved in a volatile organic solvent and applied to filter paper in a petri dish. The solvent is allowed to evaporate and lettuce seeds are applied followed by the addition of 5 mL of water to obtain the necessary concentrations. Seeds are allowed to grow and they are observed on day 3 and day 4 for evaluation.

Chain of AtIspF (Q9CAK8 53-231): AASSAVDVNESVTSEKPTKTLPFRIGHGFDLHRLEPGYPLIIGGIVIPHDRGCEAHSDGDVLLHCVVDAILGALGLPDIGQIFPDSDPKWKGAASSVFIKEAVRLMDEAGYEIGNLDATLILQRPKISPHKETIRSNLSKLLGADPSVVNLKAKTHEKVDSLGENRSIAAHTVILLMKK
Chain of LeIspE (P93841 89-401): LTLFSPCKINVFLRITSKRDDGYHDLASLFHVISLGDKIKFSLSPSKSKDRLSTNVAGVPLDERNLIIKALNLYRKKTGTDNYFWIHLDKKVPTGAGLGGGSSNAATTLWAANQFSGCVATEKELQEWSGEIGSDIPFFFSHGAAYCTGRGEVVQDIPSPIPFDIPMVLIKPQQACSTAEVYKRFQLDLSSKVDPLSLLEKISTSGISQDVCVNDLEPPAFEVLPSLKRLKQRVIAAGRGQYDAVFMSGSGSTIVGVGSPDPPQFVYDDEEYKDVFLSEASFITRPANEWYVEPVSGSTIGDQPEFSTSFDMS
Chain of Lycopersicon esculentum IspE (LeIspE) (P93841 89-401): as above
Chain of AtIspD (P69834 62-302): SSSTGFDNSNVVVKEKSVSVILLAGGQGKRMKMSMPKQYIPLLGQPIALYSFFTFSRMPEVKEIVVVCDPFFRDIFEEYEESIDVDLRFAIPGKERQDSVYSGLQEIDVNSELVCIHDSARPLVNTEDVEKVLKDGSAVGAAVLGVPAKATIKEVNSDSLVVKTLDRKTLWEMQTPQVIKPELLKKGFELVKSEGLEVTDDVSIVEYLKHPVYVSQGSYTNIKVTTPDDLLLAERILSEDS

Row | Structure (SMILES) | EC score [1] | PA score [2] | CX score [3] | ML score [4] | CP score [5] | melting point [°C] | IC50 [6] [mM] | KP score [7] | MS score [8] | IC50 [9] [mM] | BC score [10] | IC50 [11] [mM] | BT score [12] | LeIspE melting point change [13] [°C] | LeIspE melting temp [13] [°C] | MtIspD melting point change [14] [°C] | MtIspD melting temp [14] [°C] | IC50 ([6]; read-out: AtIspD IC50) [mM] | IC50 ([9]; read-out: LeIspE IC50) [mM] | IC50 ([11]; read-out: AtIspF IC50) [mM] | also measured
1 | c1ccc(-c2nnc(-c3cc4ccccc4[nH]3)o2)cc1 [HGN-208, 2-(1H-indol-2-yl)-5-phenyl-1,3,4-oxadiazole] | 0 | 0 | 0 | 0 | 0 | 254 to 257 | 0.342 ± 0.042 | 0 | 0 | 0.165 ± 0.047 | 0 | > 1 | 0 | – | – | – | – | – | – | – | –
2 | Cc1nnc(-c2cc3ccccc3[nH]2)o1 [HGN-209, 2-(1H-indol-2-yl)-5-methyl-1,3,4-oxadiazole] | 0 | 0 | 0 | 0 | 0 | 232 to 234 | – | 0 | 0 | – | 0 | – | 0 | −2.25 | 47.25 | 1.5 | 49.5 | > 1 | > 1 | > 1 | Bleaching ([15]; 0.5 mM): 0; Germination ([15]; 0.5 mM): 1; Root Dev. ([15]; 0.5 mM): 1; Bleaching ([15]; 1.0 mM): 0; Germination ([15]; 1.0 mM): 2; Root Dev. ([15]; 1.0 mM): 1
3 | COCc1nnc(-c2cc3ccccc3[nH]2)o1 [HGN-212, 2-(1H-indol-2-yl)-5-(methoxymethyl)-1,3,4-oxadiazole] | 0 | 0 | 0 | 0 | 0 | 152 to 156 | > 1 | 0 | 0 | > 1 | 0 | > 1 | 0 | – | – | – | – | – | – | – | –
4 | c1ccc(CCc2nnc(-c3cc4ccccc4[nH]3)o2)cc1 [HGN-215, 2-(1H-indol-2-yl)-5-phenethyl-1,3,4-oxadiazole] | 0 | 0 | 0 | 0 | 0 | 161 to 164 | – | 0 | 0 | – | 0 | – | 0 | −2.00 | 47.50 | 0.8 | 48.8 | > 1 | 0.43 ± 0.048 | > 1 | Bleaching ([15]; 0.15 mM): 0; Germination ([15]; 0.15 mM): 0; Root Dev. ([15]; 0.15 mM): 0; Bleaching ([15]; 0.3 mM): 0; Germination ([15]; 0.3 mM): 0; Root Dev. ([15]; 0.3 mM): 0
5 | c1ccc(Cc2nnc(-c3cc4ccccc4[nH]3)o2)cc1 [HGN-221, 2-benzyl-5-(1H-indol-2-yl)-1,3,4-oxadiazole] | 0 | 0 | 0 | 0 | 0 | 211 to 215 | – | 0 | 0 | – | 0 | – | 0 | 0.00 | 49.50 | 0.5 | 48.5 | 0.636 ± 0.068 | > 1 | > 1 | Bleaching ([15]; 0.15 mM): 0; Germination ([15]; 0.15 mM): 0; Root Dev. ([15]; 0.15 mM): 0; Bleaching ([15]; 0.3 mM): 0; Germination ([15]; 0.3 mM): 0; Root Dev. ([15]; 0.3 mM): 0
6 | CC(C)(C)c1nnc(-c2cc3ccccc3[nH]2)o1 [HGN-239, 2-(tert-butyl)-5-(1H-indol-2-yl)-1,3,4-oxadiazole] | 0 | 0 | 0 | 0 | 0 | 163 to 168 | – | 0 | 0 | – | 0 | – | 0 | −2.50 | 47.00 | – | 49.5 | > 1 | > 1 | > 1 | Bleaching ([15]; 0.5 mM): 0; Germination ([15]; 0.5 mM): 0; Root Dev. ([15]; 0.5 mM): 0; Bleaching ([15]; 1.0 mM): 0; Germination ([15]; 1.0 mM): 1; Root Dev. ([15]; 1.0 mM): 0
7 | c1ccc2[nH]c(-c3nnc(C4CCC4)o3)cc2c1 [HGN-251, 2-cyclobutyl-5-(1H-indol-2-yl)-1,3,4-oxadiazole] | 0 | 0 | 0 | 0 | 0 | 169 to 173 | > 1 | 0 | 0 | > 1 | 0 | > 1 | 0 | – | – | – | – | – | – | – | –
